Data: patent US5162538A, “Antiviral new peptides” (Bayer Aktiengesellschaft, priority 1989, dated 1992)
pIC50: −log10 of the molar value.

Tests used:
[1] = tested on: Visna virus; experiment: Visna virus test in infected cell culture (cytopathic effect); assay type: cell-based; settings: sheep fibroblast cells infected with Visna virus, MOI approx. 0.05, 7 days at 37° C., non-cytotoxic concentrations
Experimental: This was shown by way of example for the Visna virus.
The Visna virus and the HIV virus both belong to the retrovirus subfamily of lentiviruses.
In cell cultures which are infected with Visna virus, pronounced, virus-induced, cytopathic effects appear 5 to 10 days after infection. By treating the infected cell cultures with compounds according to the invention, it was possible to prevent the appearance of these cytopathic effects.
The Visna virus test was carried out according to the method of O. Narayan et al., Journal of Infectious Diseases 135, 5, 1977, 800-806. For this, a compound according to the invention was diluted to non-cytotoxic concentrations in the culture medium in 96-well microtiter plates. Sheep fibroblast cells (5×10^4 cells per well) in production medium were then added to each well. Each well then received 15 μl of a Visna virus solution having a titer of approx. 2.5×10^4 TCID50 (TCID=tissue culture infections dose). This virus dose corresponds to a MOI (multiplicity of infection) of approx. 0.05.
Under these infection conditions, a virus-induced, cytopathic effect resulted between day 5 and day 10 in an infection control without substance. The infected and treated cells and the control cells were incubated for 7 days at 37° C. and 5% CO2. […]

[2] = target: T1, HIV protease (Human immunodeficiency virus type 1 group M subtype B, UniProt P04585); experiment: HIV-specific protease enzyme test (RP-HPLC analysis of synthetic peptide cleavage); assay type: biochemical; settings: purified HIV protease incubated with synthetic peptide imitating a Gag-precursor cleavage site; 50% inhibition of protease activity
T1 construct: purified HIV protease was incubated with synthetic peptide
Experimental: The compounds of the general formula (I) have extraordinarily strong action against retroviruses. This was proven by experiments using the HIV-specific protease enzyme test.
The result of the example below was obtained using the HIV-test system described in the following reference [cf. Hansen, J., Billich, S., Schulze, T., Sukrow, S. and Molling, K. (1988), EMBO Journal, Vol. 7, No. 6, pp. 1785-1791]: purified HIV protease was incubated with synthetic peptide which imitates a cleavage site in the Gag-precursor protein and represents an in vivo cleavage site of HIV protease. The resulting cleavage products of the synthetic peptide were analyzed by reverse-phase high performance liquid chromatography (RP-HPLC). The IC50 value relates to the substance concentration which causes 50% inhibition of protease activity under the abovementioned test conditions.

## Nα-{Nδ-[1-(1-oxo)ethyl-[1-(5-S-amino-6-cyclohexyl-4-S-hydroxy-2-(1-methyl)ethylhexanoyl)]]-S-isoleucinyl}-2-pyridylmethylamide [Example I]
[1]
  protection from virus-induced cytopathic effect / cell destruction: protected the cells infected with Visna virus from the virus-induced cell destruction
[2]
  pIC50: 9.30
